# Test results published in the NIST ThermoML archive (doi:10.1016/j.fluid.2018.05.029).
# Numbers after ± are expanded uncertainties.
# Conditions: Liquid; Resistive pulse heating
Critical pressure [kPa],Critical temperature [K],Compound
3730 ± 120,606 ± 6,"CN1CCN(C)CC1 [1,4-dimethylpiperazine]"
4660 ± 140,801 ± 8,O=C1CCCCCN1 [1-aza-2-cycloheptanone]
3800 ± 120,646 ± 6,"CC1CNCC(C)N1 (stereo not drawn) [2,6-dimethylpiperazine]"
5130 ± 160,718 ± 7,C[S+](C)[O-] [dimethyl sulfoxide]
